Test results from patent publication US10827945B2, “Radiologically identified tumor habitats” (H. LEE MOFFITT CANCER CENTER AND RESEARCH INSTITUTE, INC., priority 2014, dated 2020).

Key:
[1] = tested on: soft tissue sarcomas (STS); settings: across all histological sub-types of STS; cited from earlier work
[2] = tested on: orthotopically implanted Su.86.86 PDAC cells; assay: DCE-MRI/diffusion MRI in orthotopically implanted Su.86.86 PDAC; format: in vivo; settings: orthotopic Su.86.86
Source text: (§1) In a parallel study, DCE-MRI and Diffusion MRI were investigated as response biomarkers to TH-302 in flank implanted MiaPaCa2 pancreatic adenocarcinoma (PDAC) models. […] 2012 30(7):1002-9]. In a follow-on study, orthotopically implanted Hs766t, MiaPaCa2 and Su.86.86 PDAC cells were used, which have differential sensitivities to TH-302 as monotherapy.

[3] = tested on: regions of profound hypoxia; settings: cited from earlier work
[4] = tested on: orthotopically implanted MiaPaCa2 PDAC cells; assay: DCE-MRI/diffusion MRI in orthotopically implanted MiaPaCa2 PDAC; format: in vivo; settings: orthotopic MiaPaCa2
Source text: as §1

[5] = tested on: flank implanted MiaPaCa2 pancreatic adenocarcinoma (PDAC); settings: cited from earlier work
[6] = based on phase I data; cited from earlier work
[7] = tested on: orthotopically implanted Hs766t PDAC cells; assay: DCE-MRI/diffusion MRI in orthotopically implanted Hs766t PDAC; format: in vivo; settings: orthotopic Hs766t
Source text: as §1

[8] = tested on: osteosarcoma xenotransplants; assay: Osteosarcoma xenotransplant models, ADC (diffusion MRI) and tumor response; format: in vivo, mouse; settings: for anti-tumor response: osteosarcoma xenotransplants; for shift of ADC histograms: within 48 hr following treatment
Source text: Combined MRI and histology image analyses were used to examine effects of dasatinib+Tcn in a Ewings sarcoma model; and the response to a novel Wee-1 checkpoint inhibitor, MK1775, alone and in combination with gemcitabine in osteosarcoma xenotransplants [Kreahling J M, et al. Mol Cancer Ther. 2012 11(1):174-82; Kreahling J M, et al. PloS one. 2013 8(3):e57523]. In the Ewing's model, the pre-therapy spin-echo T2 and post-therapy response of ADC were compared to tumor volume changes.
In the osteosarcoma xenotransplant models, the change in ADC was measured following treatment with gemcitabine and the wee-1 inhibitor MK-1775, alone and in combination. […] The change in ADC was highly correlated with tumor growth rate response. Also, the shapes of the histograms changed with response, going from Gaussian to a log-normal distributions, with increased skewness.
At a deeper level of analysis, the ADC maps were analyzed for image entropy, which is calculated as the randomness of a 3×3 pixel matrix surrounding the pixel under test (P-U-T).

tumors in KPC mice = settings: KPC (KrasG12D; p53R172H; Pdx1-Cre) GEMM; cited from earlier work

COc1cccc2c1C(=O)c1c(O)c3c(c(O)c1C2=O)C[C@@](O)(C(=O)CO)C[C@@H]3O[C@H]1C[C@H](N)[C@H](O)[C@H](C)O1 [DOX, doxorubicin]
response rate [1]: 25-40%

Cn1c(COP(=O)(NCCBr)NCCBr)cnc1[N+](=O)[O-] [TH-302]
Ktrans in response to treatment [2]: not
mean ADC [2]: no changes
sensitivity as monotherapy [2]: resistant
pO2 at which the warhead is released [3]: < 10 mm Hg
Ktrans in response to treatment [4]: decreases
mean ADC [4]: no changes
sensitivity as monotherapy [4]: responsive
ADC (diffusion MRI) ([5]; at any time point): no differences
Ktrans (DCE-MRI) ([5]; initial change, strongly correlated with tumor control): drop
tolerability [6]: well-tolerated
Ktrans in response to treatment [7]: decreases
mean ADC [7]: no changes
sensitivity as monotherapy [7]: responsive

C=CCn1c(=O)c2cnc(Nc3ccc(N4CCN(C)CC4)cc3)nc2n1-c1cccc(C(C)(C)O)n1 [MK-1775]
anti-tumor response [8]: non-responsive
anti-tumor response ([8]; listed as MK1775): did not
shift of ADC histograms [8]: not

Nc1ccn([C@@H]2O[C@H](CO)[C@@H](O)C2(F)F)c(=O)n1 [gemcitabine]
change in average ADC-entropy values from pre-treatment ([8]; compared to controls (p=0.022) and MK1775 (p=0.023)): statistically larger variations in ADC values
anti-tumor response [8]: robust anti-tumor response
anti-tumor response ([8]; listed as Gem): responded to therapy
shift of ADC histograms [8]: shifted to the right
sensitivity of tumors (tumors in KPC mice): generally resistant
